From patent US20210283053A1, “LIQUID FORMULATIONS OF GLUCAGON ANALOGUES” (Zealand Pharma A/S, priority 2020, published 2021)

Tested on: RYGB-operated individuals with confirmed postprandial hypoglycaemia
Test: Crossover study with liquid mixed meal test, postprandial hypoglycaemia after Roux-en-Y gastric bypass
Format: in vivo, human
Settings: for time spent in level 2 hypoglycaemia (<3.1 mmol/l): n=5, placebo 31.0±5; for nadir PG: placebo 3.0±0.2; for time spent in hypoglycaemia (<3.9 mmol/l): placebo 62.0±8; for PG incremental AUC (iAUC70-240 min) after drug administration: placebo 752±19, p<0.0001
Excerpt: Postprandial hypoglycaemia is a frequent and debilitating complication following Roux-en-Y gastric bypass (RYGB), and no effective treatment exists. In a proof-of-concept study, we investigated the effects of dasiglucagon, a novel, stable glucagon analogue, on postprandial hypoglycaemia after RYGB. The primary aim of the present study was to examine the effects of two doses of dasiglucagon on the postprandial nadir plasma glucose concentration (PG) and time spent in hypoglycaemia (<3.9 mmol/l) in RYGB-operated individuals with confirmed postprandial hypoglycaemia.
Ten RYGB-operated individuals (two males, eight females; BMI 34.6 (21.8-39.0) kg/m^2; age 46 (29-67) years; HbA1c 32 (29-42) mmol/mol; time since operation 9.3 (6-11.5) years; weight loss since operation 53.9 (25.1-92.0) kg)) with confirmed symptomatic postprandial hypoglycaemia (PG<3.5 mmol/l verified by a 6-day continuous glucose monitoring) completed a double-blinded, randomised, crossover study comprising three separate treatment days, each including a standardised liquid mixed meal test (25 kJ per kg body mass; 50 E % carbohydrates, 35 E % fat and 15 E % protein). A subcutaneous injection of either placebo, 80 or 200 μg dasiglucagon (D80μg and D200μg) was administered after the postprandial PG peak, approximately 10 minutes before the projected time point where the PG returned to fasting levels using a subject-specific linear regression model. Blood sampling and assessment of hypoglycaemic symptoms, by the Edinburgh Hypoglycaemia Symptom Scale, were performed at fixed time intervals. Data were analysed using linear mixed models and Tukey's corrections model for multiple comparisons.

## Hy-HSQGTFTSDYSKYLD-Aib-ARAEEFVKWLEST-OH [Compound 1, glucagon analogue (dasiglucagon)]
80 μg subcutaneous, p>0.05
  time spent in level 2 hypoglycaemia (<3.1 mmol/l): 7 ± 5 min
80 μg subcutaneous, p=0.002
  nadir PG: 3.9 ± 0.3 mmol/L
80 μg subcutaneous, p=0.05
  time spent in hypoglycaemia (<3.9 mmol/l): 27.5 ± 12 min
80 μg subcutaneous
  PG incremental AUC (iAUC70-240 min) after drug administration: 917 ± 22 mmol·min/L
200 μg subcutaneous, five participants after placebo
  participants who experienced level 2 hypoglycaemia (<3.1 mmol/l): none
200 μg subcutaneous, p=0.01
  time spent in level 2 hypoglycaemia (<3.1 mmol/l): 0.0 ± 0 min
200 μg subcutaneous, p=0.0002
  nadir PG: 4.5 ± 0.2 mmol/L
200 μg subcutaneous, p=0.003
  time spent in hypoglycaemia (<3.9 mmol/l): 14.0 ± 9 min
200 μg subcutaneous
  PG incremental AUC (iAUC70-240 min) after drug administration: 992 ± 28 mmol·min/L
Between the three study days (placebo, 80 and 200 μg)
  changes in hypoglycaemic symptoms (Edinburgh Hypoglycaemia Symptom Scale): no significant changes
